In patent US9018388B2, “Pesticidal compositions and processes related thereto” (Dow AgroSciences LLC, priority 2012, dated 2015):

Columns and labels:
Format in all cases: in vivo
[1] = tested on: Beet Armyworm (BAW) (Spodoptera exigua); assay: Bioassay on beet armyworm (BAW), 128-well diet tray assay; settings: Spodoptera exigua; Beet armyworm, 50 μg/cm^2; read-out: % Mortality BAW 50 μg/cm^2
How it was run: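 Second-instar Spodoptera exigua larvae, one to five per well, on artificial diet treated with 50 μg/cm^2 compound in 90:10 acetone-water and dried, eight wells per compound. Held at 25 °C, 14:10 light-dark for five to seven days; percent mortality averaged over wells.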

[2] = tested on: Corn Earworm (CEW) (Helicoverpa zea); assay: Bioassay on corn earworm (CEW), 128-well diet tray assay; settings: Helicoverpa zea; Corn earworm, 50 μg/cm^2; read-out: % Mortality CEW 50 μg/cm^2
How it was run: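 Second-instar Helicoverpa zea larvae (one to five per well) placed on artificial diet treated with 50 μg/cm^2 compound in 90:10 acetone-water, dried, eight wells per compound. Held at 25 °C, 14:10 light-dark, five to seven days; percent mortality averaged over wells.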

[3] = tested on: Green Peach Aphid (GPA) (Myzus persicae); assay: Bioassay on green peach aphid (GPA), foliar spray on cabbage seedlings; settings: 72 h, read-out: % Mortality GPA 200 ppm
Description: Bioassays on Green Peach Aphid (“GPA”) (Myzus persicae)
Certain molecules disclosed in this document were tested against GPA using procedures described in the following example. In the reporting of the results, the “GPA Rating Table” was used (See Table Section).
Cabbage seedlings grown in 3-inch pots, with 2-3 small (3-5 cm) true leaves, were used as test substrate. The seedlings were infested with 20-50 GPA (wingless adult and nymph stages) one day prior to chemical application. Four pots with individual seedlings were used for each treatment. Test compounds (2 mg) were dissolved in 2 mL of acetone/methanol (1:1) solvent, forming stock solutions of 1000 ppm test compound. The stock solutions were diluted 5× with 0.025% Tween 20 in H2O to obtain the solution at 200 ppm test compound. A hand-held aspirator-type sprayer was used for spraying a solution to both sides of […] leaves until runoff. Reference plants (solvent check) were sprayed with the diluent only containing 20% by volume of acetone/methanol (1:1) solvent. Treated plants were held in a holding room for three days at approximately 25° C. and ambient relative humidity (RH) prior to grading. Evaluation was conducted by counting the number of live aphids per plant under a microscope. Percent Control was measured by using Abbott's correction formula (W. S. Abbott, “A Method of Computing the Effectiveness of an Insecticide” J. Econ. Entomol. 18 (1925), pp. 265-267) as follows. Corrected%Control=100*(X−Y)/X • where • X=No. of live aphids on solvent check plants and • Y=No. of live aphids on treated plants
The results are indicated in the table entitled “Table 5: Biological Results” (See Table Section).

SMILES	pest or weed control at 50 µg/cm2, 50 µg/cm2 [1]	pest or weed control at 50 µg/cm2, 50 µg/cm2 [2]	pest or weed control at 200 ppm [3]
Cc1cccc(C)c1/N=C(/N/N=C/c1ccc(-c2ncn(-c3ccc(OC(F)(F)F)cc3)n2)cc1)SCC(=O)NCC(NC(=O)OC(C)(C)C)C(=O)O (stereo not drawn) [Compound 59C]	50 to 100%	50 to 100%	0 to 80%
CC(C)=Cc1ccccc1N1CCS/C1=N\N=C\c1ccc(-c2ncn(-c3ccc(OC(F)(F)F)cc3)n2)cc1 [Compound 151C]	50 to 100%	50 to 100%	0 to 80%
CC(=O)OCS/C(=N\c1c(C)cccc1C)N/N=C/c1ccc(-c2ncn(-c3ccc(OC(F)(F)F)cc3)n2)cc1 [Compound 31C]	50 to 100%	50 to 100%	0 to 80%
CC1CS/C(=N\N=C\c2ccc(-c3ncn(-c4ccc(OC(F)(F)F)cc4)n3)cc2)N1c1c(Cl)cccc1Cl (stereo not drawn) [Compound 157C]	50 to 100%	50 to 100%	0 to 80%
CC1S/C(=N\N=C\c2ccc(-c3ncn(-c4ccc(OC(F)(F)F)cc4)n3)cc2)N(c2ccccc2C(C)C)C1=O (stereo not drawn) [Compound 88C]	50 to 100%	50 to 100%	0 to 80%
Cc1cccc(C)c1/N=C(/N/N=C/c1ccc(-c2ncn(-c3ccc(OC(F)(F)F)cc3)n2)cc1)SCc1cc2c(C(F)(F)F)nn(C)c2s1 [Compound 19C]	50 to 100%	50 to 100%	0 to 80%
CCOCC(=O)OCS/C(=N\c1c(C)cc(OC)cc1C)N/N=C/c1ccc(-c2ncn(-c3ccc(OC(F)(F)F)cc3)n2)cc1 [Compound 29C]	50 to 100%	50 to 100%	0 to 80%
Cc1cccc(C)c1/N=C(/N/N=C/c1ccc(-c2ncn(-c3ccc(OC(F)(F)F)cc3)n2)cc1)SCc1ccc(S(C)(=O)=O)cc1 [Compound 17C]	50 to 100%	50 to 100%	0 to 80%
COc1ccccc1N1CCS/C1=N\N=C\c1ccc(-c2ncn(-c3ccc(OC(F)(F)F)cc3)n2)cc1 [Compound 140C]	50 to 100%	50 to 100%	0 to 80%
FC(F)(F)Oc1ccc(-n2cnc(-c3ccc(/C=N/N=C4\SCCCN4c4ccccc4C4CC4)cc3)n2)cc1 [Compound 186C]	50 to 100%	50 to 100%	0 to 80%
COc1cc(Cl)c(/N=C(/N/N=C/c2ccc(-c3ncn(-c4ccc(OC(F)(F)F)cc4)n3)cc2)SCOC(=O)OC(C)C)c(Cl)c1 [Compound 33C]	50 to 100%	50 to 100%	0 to 80%
Cc1cccc(C)c1-n1c(-c2ccc(OC(F)(F)F)cc2)cs/c1=N\N=C\c1ccc(-c2ncn(-c3ccc(OC(F)(F)F)cc3)n2)cc1 [Compound 78C]	50 to 100%	50 to 100%	0 to 80%
COc1cccc(N2CCS/C2=N\N=C\c2ccc(-c3ncn(-c4ccc(OC(F)(F)F)cc4)n3)cc2)c1 [Compound 147C]	50 to 100%	50 to 100%	0 to 80%
COc1cc(C)c(N2CCS/C2=N\N=C\c2ccc(-c3ncn(-c4ccc(OC(F)(F)F)cc4)n3)cc2)c(C)c1 [Compound 138C]	50 to 100%	50 to 100%	0 to 80%
COc1cc(C)c(/N=C(/N/N=C/c2ccc(-c3ncn(-c4ccc(OC(F)(F)F)cc4)n3)cc2)SCOC(=O)C(C)C)c(C)c1 [Compound 27C]	50 to 100%	50 to 100%	0 to 80%
O=C1CS/C(=N\N=C\c2ccc(-c3ncn(-c4ccc(OC(F)(F)F)cc4)n3)cc2)N1c1ccccc1C1CC1 [Compound 112C]	50 to 100%	50 to 100%	0 to 80%
Cc1cccc(C)c1/N=C(/N/N=C/c1ccc(-c2ncn(-c3ccc(OC(F)(F)F)cc3)n2)cc1)SCc1c(F)cccc1F [Compound 5C]	50 to 100%	50 to 100%	0 to 80%

SMILES	pest or weed control at 50 µg/cm2, 50 µg/cm2 [1]	pest or weed control at 50 µg/cm2, 50 µg/cm2 [2]	pest or weed control at 200 ppm [3]
CCc1cccc(C)c1N1C(=O)CS/C1=N\N=C\c1ccc(-c2ncn(-c3ccc(OC(F)(F)F)cc3)n2)cc1 [Compound 111C]	50 to 100%	50 to 100%	0 to 80%
Cc1cccc(C)c1/N=C(/N/N=C/c1ccc(-c2ncn(-c3ccc(OC(F)(F)F)cc3)n2)cc1)SCc1ocnc1-c1ccccc1 [Compound 15C]	50 to 100%	50 to 100%	80 to 100%
Cc1cccc(C)c1/N=C(/N/N=C/c1ccc(-c2ncn(-c3ccc(OC(F)(F)C(F)(F)F)cc3)n2)cc1)SCC(=O)O [Compound 49C]	50 to 100%	50 to 100%	0 to 80%
Cc1cc(Br)cc(C)c1N1CCCS/C1=N\N=C\c1ccc(-c2ncn(-c3ccc(OC(F)(F)F)cc3)n2)cc1 [Compound 203C]	50 to 100%	50 to 100%	0 to 80%
Cc1cccc(C)c1/N=C(/N/N=C/c1ccc(-c2ncn(-c3ccc(OC(F)(F)F)cc3)n2)cc1)SCC(=O)N1CCN(C(=O)OC(C)(C)C)CC1 [Compound 57C]	50 to 100%	50 to 100%	0 to 80%
COc1ccc(C)cc1N1CCCS/C1=N\N=C\c1ccc(-c2ncn(-c3ccc(OC(F)(F)F)cc3)n2)cc1 [Compound 204C]	50 to 100%	50 to 100%	0 to 80%
Cc1cccc(C)c1-n1c(-c2nccs2)cs/c1=N\N=C\c1ccc(-c2ncn(-c3ccc(OC(F)(F)F)cc3)n2)cc1 [Compound 75C]	50 to 100%	50 to 100%	0 to 80%
CCc1cccc(C)c1N1/C(=N/N=C/c2ccc(-c3ncn(-c4ccc(OC(F)(F)F)cc4)n3)cc2)SCCC1C (stereo not drawn) [Compound 213C]	50 to 100%	50 to 100%	0 to 80%
Cc1cccc(C)c1/N=C(/N/N=C/c1ccc(-c2ncn(-c3ccc(OC(F)(F)F)cc3)n2)cc1)SCc1ccc(S(=O)(=O)Nc2ccc(F)cc2)cc1 [Compound 18C]	50 to 100%	50 to 100%	0 to 80%
Cc1cc(C)c(N2CCS/C2=N\N=C\c2ccc(-c3ncn(-c4ccc(OC(F)(F)F)cc4)n3)cc2)c(C)c1 [Compound 139C]	50 to 100%	50 to 100%	0 to 80%
COc1cc(C)c(/N=C(/N/N=C/c2ccc(-c3ncn(-c4ccc(OC(F)(F)F)cc4)n3)cc2)SCOC(=O)C2CCCC2)c(C)c1 [Compound 43C]	50 to 100%	50 to 100%	0 to 80%
Cc1cccc(C)c1/N=C(/N/N=C/c1ccc(-c2ncn(-c3ccc(OC(F)(F)F)cc3)n2)cc1)SCOC(=O)CNC(=O)OC(C)(C)C [Compound 30C]	50 to 100%	50 to 100%	0 to 80%
Cc1cccc(C)c1-n1c(-c2ccc(C(F)(F)F)cc2)cs/c1=N\N=C\c1ccc(-c2ncn(-c3ccc(OC(F)(F)F)cc3)n2)cc1 [Compound 79C]	50 to 100%	50 to 100%	0 to 80%
Cc1ccccc1N1/C(=N/N=C/c2ccc(-c3ncn(-c4ccc(OC(F)(F)F)cc4)n3)cc2)SCC1C (stereo not drawn) [Compound 154C]	50 to 100%	50 to 100%	0 to 80%
COc1ccc(N2CCCS/C2=N\N=C\c2ccc(-c3ncn(-c4ccc(OC(F)(F)F)cc4)n3)cc2)c(C)c1 [Compound 192C]	50 to 100%	50 to 100%	0 to 80%
O=C1CS/C(=N\N=C\c2ccc(-c3ncn(-c4ccc(OC(F)(F)F)cc4)n3)cc2)N1c1c(F)cccc1Cl [Compound 95C]	50 to 100%	50 to 100%	0 to 80%
